Target: T1, IRAK4 protein in normal human PBMCs (Homo sapiens, UniProt Q9NWZ3)
T1 construct: host or cells: normal human PBMCs
T1 sequence (Q9NWZ3 1-460): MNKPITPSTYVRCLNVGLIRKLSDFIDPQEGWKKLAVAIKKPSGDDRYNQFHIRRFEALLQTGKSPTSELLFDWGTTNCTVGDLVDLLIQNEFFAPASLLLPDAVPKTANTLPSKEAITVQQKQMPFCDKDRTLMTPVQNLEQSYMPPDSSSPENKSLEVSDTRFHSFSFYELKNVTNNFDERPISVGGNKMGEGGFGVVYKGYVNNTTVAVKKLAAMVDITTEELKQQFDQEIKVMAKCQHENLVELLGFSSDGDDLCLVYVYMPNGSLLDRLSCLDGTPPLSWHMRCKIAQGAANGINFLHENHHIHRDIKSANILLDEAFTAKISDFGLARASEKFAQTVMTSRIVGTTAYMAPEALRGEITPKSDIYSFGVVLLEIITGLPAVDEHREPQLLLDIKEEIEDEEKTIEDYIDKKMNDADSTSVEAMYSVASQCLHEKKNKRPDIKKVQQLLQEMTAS
Experiment: Degradation of IRAK4 protein in normal human PBMCs (AlphaLISA)
Format: cell-based
Conditions: 24 h incubation
Protocol: The cryopreserved normal human PBMCs (Milestone, PB010C) were thawed and resuspended in RPMI 1640 medium (Gibco, A1049101) supplemented with 10% fetal bovine serum (Gibco, 10099141), 100 U/mL penicillin, and 100 µg/mL streptomycin (Gibco, 15140122). After 0.95 mL of cells were plated in each well of a 24-well cell culture plate, 50 µL of diluted compound solution was added to corresponding wells with cells, such that the final concentration of the compound fell within the range of 0.01-3000 nM. The final concentration of DMSO was 0.25%. After the compound-treated cell plate was incubated in an incubator at 37° C. with 5% CO2 for 24 h, the cells were collected into 1.5 mL centrifuge tubes and centrifuged at 1000 rpm at 4° C. for 5 min. The cell pellets were washed twice with 1×DPBS. The resuspended cells were lysed with 100 μL of lysis buffer, left to stand on ice for 30 min, and then centrifuged at 14000 g at 4° C. for 10 min. The samples of the cell lysate supernatant after centrifugation were cryopreserved at −80° C. before testing. The cell lysis buffer was a Western and IP cell lysis buffer (Beyotime, P0013) supplemented with 1 mM phenylmethylsulfonyl fluoride and a protease inhibitor cocktail (Beyotime, P1008).
The total protein concentrations of the cell lysate samples were determined using a BCA protein quantification kit (Tiangen, PA115-02).
The prepared PBMC lysate samples were assayed for IRAK4 concentrations using a human IRAK4 AlphaLISA assay kit (PerkinElmer, AL3117C) to determine the degradation effects of the compounds on IRAK4. The method is as follows:
5 μL of each of IRAK4 standard solutions with different concentrations and test samples of cell lysate supernatant were added to a white 384-well plate (PerkinElmer, 6007299), and then 10 μL of 5× anti-IRAK4 […] beads was added to each well (final concentration of 10 μg/mL). The plate was incubated at room temperature for 30 min. Then 10 μL of 5× biotin-labeled anti-IRAK4 antibody was added to each well (final concentration of 1 nM), and the plate was incubated at room temperature for another 60 min. Finally, 25 μL of 2× streptavidin-labeled donor beads was added to each well (final concentration of 40 μg/mL), and the plate was incubated at room temperature for another 30 min. After the incubation was completed, AlphaLISA signal values were measured on a microplate reader EnVision (PerkinElmer, 2105) in the AlphaScreen standard mode. A standard curve was plotted from the AlphaLISA signal values of the IRAK4 standard solutions with different concentrations, and the IRAK4 concentration of each cell lysate supernatant was determined according to the corresponding concentrations on the standard curve for the AlphaLISA signal values of the test samples and by performing corresponding correction on the total protein concentration of each sample obtained by BCA quantification. The degradation rates for the compounds at each concentration were calculated by comparing the IRAK4 concentration with that of the control group. Then non-linear curve fittings for logarithmic concentration-inhibition rate were performed using GraphPad Prism 8, and the DC50 and Dmax values of the compound were obtained.

| SMILES | DC50 [nM] | Dmax [%] |
| --- | --- | --- |
| O=C1CCN(c2cc(C(=O)N3CCC4(CCN(C[C@H]5CC[C@H](n6cc(NC(=O)c7cnn8ccc(N9C[C@H]%10C[C@@H]9CO%10)nc78)c(C(F)F)n6)CC5)CC4)CC3)ccc2Cl)C(=O)N1 [Example 2, 5-((1R,4R)-2-oxa-5-azabicyclo[2.2.1]heptan-5-yl)-N-(1-((1r,4R)-4-((9-(4-chloro-3-(2,4-dioxotetrahydropyrimidin-1(2H)-yl)benzoyl)-3,9-diazaspiro[5.5]undecan-3-yl)methyl)cyclohexyl)-3-(difluoromethyl)-1H-pyrazol-4-yl)pyrazolo[1,5-a]pyrimidine-3-carboxamide] | 1.56 | 99.1 |
| COc1ccc(C(=O)N2CCC3(CCC(CN4CCC(n5cc(NC(=O)c6cnn7ccc(N8C[C@H]9C[C@@H]8CO9)nc67)c(C(F)F)n5)CC4)CC3)CC2)cc1N1CCC(=O)NC1=O [Example 3, 5-((1R,4R)-2-oxa-5-azabicyclo[2.2.1]heptan-5-yl)-N-(3-(difluoromethyl)-1-(1-((3-(3-(2,4-dioxotetrahydropyrimidin-1(2H)-yl)-4-methoxybenzoyl)-3-azaspiro[5.5]undecan-9-yl)methyl)piperidin-4-yl)-1H-pyrazol-4-yl)pyrazolo[1,5-a]pyrimidine-3-carboxamide] | 0.28 | 97.7 |
| Cc1ccc(C(=O)N2CCC3(CCC(CN4CCC(n5cc(NC(=O)c6cnn7ccc(N8CCOCC8)nc67)c(C(F)F)n5)CC4)CC3)CC2)cc1N1CCC(=O)NC1=O [Example 13, N-(3-(difluoromethyl)-1-(1-((3-(3-(2,4-dioxotetrahydropyrimidin-1(2H)-yl)-4-methylbenzoyl)-3-azaspiro[5.5]undecan-9-yl)methyl)piperidin-4-yl)-1H-pyrazol-4-yl)-5-morpholinopyrazolo[1,5-a]pyrimidine-3-carboxamide] | 0.21 | 98.2 |
| O=C1CCN(c2cc(C(=O)N3CCC(CCCCN4CCC(n5cc(NC(=O)c6cnn7ccc(N8C[C@H]9C[C@@H]8CO9)nc67)c(C(F)F)n5)CC4)CC3)ccc2Cl)C(=O)N1 [Example 7, 5-((1R,4R)-2-oxa-5-azabicyclo[2.2.1]heptan-5-yl)-N-(1-(1-(4-(1-(4-chloro-3-(2,4-dioxotetrahydropyrimidin-1(2H)-yl)benzoyl)piperidin-4-yl)butyl)piperidin-4-yl)-3-(difluoromethyl)-1H-pyrazol-4-yl)pyrazolo[1,5-a]pyrimidine-3-carboxamide] | 0.39 | 98.1 |
| O=C1CCN(c2cc(C(=O)N3CCC4(CCC(CN5CCC(n6cc(NC(=O)c7cnn8ccc(N9CCNCC9)nc78)c(C(F)F)n6)CC5)CC4)CC3)ccc2Cl)C(=O)N1 [Example 5, N-(1-(1-((3-(4-chloro-3-(2,4-dioxotetrahydropyrimidin-1(2H)-yl)benzoyl)-3-azaspiro[5.5]undecan-9-yl)methyl)piperidin-4-yl)-3-(difluoromethyl)-1H-pyrazol-4-yl)-5-(piperazin-1-yl)pyrazolo[1,5-a]pyrimidine-3-carboxamide] | 0.6 | 98.8 |
| COc1ccc(C(=O)N2CCC3(CCC(CCN4CCC(n5cc(NC(=O)c6cnn7ccc(N8CCOCC8)nc67)c(C(F)F)n5)CC4)CC3)CC2)cc1N1CCC(=O)NC1=O [Example 16, N-(3-(difluoromethyl)-1-(1-(2-(3-(3-(2,4-dioxotetrahydropyrimidin-1(2H)-yl)-4-methoxybenzoyl)-3-azaspiro[5.5]undecan-9-yl)ethyl)piperidin-4-yl)-1H-pyrazol-4-yl)-5-morpholinopyrazolo [1,5-a]pyrimidine-3-carboxamide] | 0.7 | 98.4 |

Second part, the compound after the results:

| DC50 [nM] | Dmax [%] | SMILES |
| --- | --- | --- |
| 0.84 | 99.2 | O=C1CCN(c2cc(C(=O)N3CCC(OCCCN4CCC(n5cc(NC(=O)c6cnn7ccc(N8C[C@H]9C[C@@H]8CO9)nc67)c(C(F)F)n5)CC4)CC3)ccc2Cl)C(=O)N1 [Example 31, 5-((1R,4R)-2-oxa-5-azabicyclo[2.2.1]heptan-5-yl)-N-(1-(1-(3-((1-(4-chloro-3-(2,4-dioxotetrahydropyrimidin-1(2H)-yl)benzoyl)piperidin-4-yl)oxy)propyl)piperidin-4-yl)-3-(difluoromethyl)-1H-pyrazol-4-yl)pyrazolo[1,5-a]pyrimidine-3-carboxamide] |
| 4.73 | 107 | COc1ccc(C(=O)N2CCC3(CCN(CCCN4CCC(n5cc(NC(=O)c6cnn7ccc(N8CCOCC8)nc67)c(C(F)F)n5)CC4)CC3)CC2)cc1N1CCC(=O)NC1=O [Example 28, N-(3-(difluoromethyl)-1-(1-(3-(9-(3-(2,4-dioxotetrahydropyrimidin-1(2H)-yl)-4-methoxybenzoyl)-3,9-diazaspiro[5.5]undecan-3-yl)propyl)piperidin-4-yl)-1H-pyrazol-4-yl)-5-morpholinopyrazolo[1,5-a]pyrimidine-3-carboxamide] |
| 0.32 | 97.5 | Cc1ccc(C(=O)N2CCC3(CCC(CN4CCC(n5cc(NC(=O)c6cnn7ccc(N8CCC[C@H](O)C8)nc67)c(C(F)F)n5)CC4)CC3)CC2)cc1N1CCC(=O)NC1=O [Example 25, (S)—N-(3-(difluoromethyl)-1-(1-((3-(3-(2,4-dioxotetrahydropyrimidin-1(2H)-yl)-4-methylbenzoyl)-3-azaspiro[5.5]undecan-9-yl)methyl)piperidin-4-yl)-1H-pyrazol-4-yl)-5-(3-hydroxypiperidin-1-yl)pyrazolo [1,5-a]pyrimidine-3-carboxamide] |
| 0.53 | 98.1 | Cc1ccc(C(=O)N2CCC3(CCC(CN4CCC(n5cc(NC(=O)c6cnn7ccc(N8CCS(=O)(=O)CC8)nc67)c(C(F)F)n5)CC4)CC3)CC2)cc1N1CCC(=O)NC1=O [Example 22, N-(3-(difluoromethyl)-1-(1-((3-(3-(2,4-dioxotetrahydropyrimidin-1(2H)-yl)-4-methylbenzoyl)-3-azaspiro[5.5]undecan-9-yl)methyl)piperidin-4-yl)-1H-pyrazol-4-yl)-5-(1,1-dioxothiomorpholinyl)pyrazolo[1,5-a]pyrimidine-3-carboxamide] |
| 1 | 100 | N[C@H]1CCCN(c2ccn3ncc(C(=O)Nc4cn(C5CCN(CC6CCC7(CC6)CCN(C(=O)c6ccc(Cl)c(N8CCC(=O)NC8=O)c6)CC7)CC5)nc4C(F)F)c3n2)C1 [Example 30, (S)-5-(3-aminopiperidin-1-yl)-N-(1-(1-((3-(4-chloro-3-(2,4-dioxotetrahydropyrimidin-1(2H)-yl)benzoyl)-3-azaspiro[5.5]undecan-9-yl)methyl)piperidin-4-yl)-3-(difluoromethyl)-1H-pyrazol-4-yl)pyrazolo [1,5-a]pyrimidine-3-carboxamide] |
| 0.35 | 97.8 | O=C1CCN(c2cc(C(=O)N3CCC4(CCC(CN5CCC(n6cc(NC(=O)c7cnn8ccc(N9CCC[C@H](O)C9)nc78)c(C(F)F)n6)CC5)CC4)CC3)ccc2Cl)C(=O)N1 [Example 26, (S)—N-(1-(1-((3-(4-chloro-3-(2,4-dioxotetrahydropyrimidin-1(2H)-yl)benzoyl)-3-azaspiro[5.5]undecan-9-yl)methyl)piperidin-4-yl)-3-(difluoromethyl)-1H-pyrazol-4-yl)-5-(3-hydroxypiperidin-1-yl)pyrazolo[1,5-a]pyrimidine-3-carboxamide] |

Source: patent US20260174878A1, “IRAK4 DEGRADATION AGENT AND USE THEREOF” (LEADINGTAC PHARMACEUTICAL (SHAOXING) CO., LTD., priority 2022, published 2026)
